The experiment addresses T1, Dopamine beta hydroxylase (Homo sapiens, UniProt P09172).
T1 construct: 125 μl of plasma; tissue Instituto Português do Sangue Transplantação; host or cells: human plasma from healthy donors
T1 sequence (P09172 40-617 limits assumed): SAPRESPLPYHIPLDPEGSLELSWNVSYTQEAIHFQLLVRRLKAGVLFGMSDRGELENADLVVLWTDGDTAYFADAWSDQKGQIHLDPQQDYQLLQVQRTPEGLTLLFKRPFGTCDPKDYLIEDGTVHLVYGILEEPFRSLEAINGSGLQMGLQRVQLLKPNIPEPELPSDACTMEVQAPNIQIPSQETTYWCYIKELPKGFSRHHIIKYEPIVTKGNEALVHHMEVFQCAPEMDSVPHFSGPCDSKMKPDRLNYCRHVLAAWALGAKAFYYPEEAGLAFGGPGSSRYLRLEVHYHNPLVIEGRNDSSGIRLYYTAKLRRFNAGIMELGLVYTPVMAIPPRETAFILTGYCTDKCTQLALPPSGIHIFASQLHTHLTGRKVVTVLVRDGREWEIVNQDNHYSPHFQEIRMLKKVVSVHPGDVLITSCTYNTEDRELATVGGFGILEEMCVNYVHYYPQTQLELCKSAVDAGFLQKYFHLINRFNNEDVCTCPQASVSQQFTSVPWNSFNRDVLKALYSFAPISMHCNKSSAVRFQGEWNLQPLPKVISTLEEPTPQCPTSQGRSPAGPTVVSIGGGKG
Put plainly: Dopamine beta hydroxylase activity in human plasma. The note with it: for Plasma (0.1 μM), activity in % of control: inhibitor 0.1 μM; for Plasma (1 μM), activity in % of control: inhibitor 1 μM; for Plasma (0.01 μM), activity in % of control: inhibitor 0.01 μM. Format: biochemical. Put shortly: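 Healthy-donor human plasma pre-incubated 10 min at 37° C with compound at final 10, 100 or 1000 nM in pH 5.0 acetate buffer with ascorbate, fumarate, pargyline, N-ethylmaleimide, catalase and copper sulfate. Tyramine substrate then added for 45 min; octopamine formed was isolated by SCX cartridge, periodate-converted and read at 330 nm; activity given as % control.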

SMILES strings stand for the structures.

Turning to `CCOC(=O)Cc1[nH]c(=S)n2c1C[C@H](c1c(F)cccc1F)C2` [Example 65, Ethyl (R)-2-(6-(2,6-difluorophenyl)-3-thioxo-2,5,6,7-tetrahydro-3H-pyrrolo[1,2-c]imidazol-1-yl)acetate], the “Plasma (0.1 μM), activity in % of control” value was 64.5 % of control and the “Plasma (1 μM), activity in % of control” value was 12.6 % of control.
In the case of `Cn1c(CC(=O)NC2CCOCC2)c2n(c1=S)C[C@H](c1c(F)ccc(Cl)c1F)C2` [Example 367, (S)-2-(6-(3-chloro-2,6-difluorophenyl)-2-methyl-3-thioxo-2,5,6,7-tetrahydro-3H-pyrrolo[1,2-c]imidazol-1-yl)-N-(tetrahydro-2H-pyran-4-yl)acetamide], the “Plasma (0.01 μM), activity in % of control” value is listed as 45.4 % of control and the “Plasma (0.1 μM), activity in % of control” value is 4.3 % of control.
For `C[C@@H](NCCc1[nH]c(=S)n2c1C[C@H](c1c(F)ccc(Br)c1F)C2)C1CCCCC1` [Example 184, (R)-6-(3-bromo-2,6-difluorophenyl)-1-(2-(((R)-1-cyclohexylethyl)amino)ethyl)-2,5,6,7-tetrahydro-3H-pyrrolo[1,2-c]imidazole-3-thione], the “Plasma (0.01 μM), activity in % of control” value is on record as 89.2 % of control and the “Plasma (0.1 μM), activity in % of control” value is listed as 43.7 % of control.
Turning to `Cl.Cn1c(CC(=O)NCc2cnccn2)c2n(c1=S)C[C@@]1(c3cc(Cl)ccc3F)C[C@@H]21` [Example 335, 2-((5aS,6aR)-5a-(5-chloro-2-fluorophenyl)-2-methyl-3-thioxo-2,3,5,5a,6,6a-hexahydrocyclopropa[3,4]pyrrolo[1,2-c]imidazol-1-yl)-N-(pyrazin-2-ylmethyl)acetamide Hydrochloride], the “Plasma (0.01 μM), activity in % of control” value is given as 44.9 % of control and the “Plasma (0.1 μM), activity in % of control” value is 8.7 % of control.
On to `O=C(Cc1[nH]c(=S)n2c1C[C@@H](c1c(F)ccc(Br)c1F)C2)N1CC[S+]([O-])CC1` [Example 166, (S)-2-(6-(3-bromo-2,6-difluorophenyl)-3-thioxo-2,5,6,7-tetrahydro-3H-pyrrolo[1,2-c]imidazol-1-yl)-1-(1-oxidothiomorpholino)ethan-1-one], for which the “Plasma (0.01 μM), activity in % of control” value is given as 66.9 % of control and the “Plasma (0.1 μM), activity in % of control” value is 14.1 % of control.
With `Cn1c(CCc2cccnc2)c2n(c1=S)C[C@@H](c1c(F)c(F)cc(F)c1F)C2` [Example 259, (R)-2-methyl-1-(2-(pyridin-3-yl)ethyl)-6-(2,3,5,6-tetrafluorophenyl)-6,7-dihydro-2H-pyrrolo[1,2-c]imidazole-3(5H)-thione], the “Plasma (0.01 μM), activity in % of control” value is recorded as 90.8 % of control and the “Plasma (0.1 μM), activity in % of control” value is 76.1 % of control.
Take `CC(C)NC(=O)Cc1c2n(c(=S)n1C)C[C@@]1(c3cc(Br)ccc3F)C[C@@H]21` [Example 284, 2-((5aS,6aR)-5a-(5-bromo-2-fluorophenyl)-2-methyl-3-thioxo-2,3,5,5a,6,6a-hexahydrocyclopropa[3,4]pyrrolo[1,2-c]imidazol-1-yl)-N-isopropylacetamide]: the “Plasma (0.01 μM), activity in % of control” value is listed as 84.8 % of control and the “Plasma (0.1 μM), activity in % of control” value is listed as 41.9 % of control.
Turning to `Cn1c(CC(=O)N2CCNC(=O)C2)c2n(c1=S)C[C@@H](c1c(F)c(F)cc(F)c1F)C2` [Example 323, (R)-4-(2-(2-methyl-6-(2,3,5,6-tetrafluorophenyl)-3-thioxo-2,5,6,7-tetrahydro-3H-pyrrolo[1,2-c]imidazol-1-yl)acetyl)piperazin-2-one], the “Plasma (0.01 μM), activity in % of control” value is reported as 86.3 % of control and the “Plasma (0.1 μM), activity in % of control” value is listed as 43.3 % of control.
The corresponding values for `Cn1c(CC(=O)NC2COC2)c2n(c1=S)C[C@H](c1c(F)ccc(Cl)c1F)C2` [Example 333, (S)-2-(6-(3-chloro-2,6-difluorophenyl)-2-methyl-3-thioxo-2,5,6,7-tetrahydro-3H-pyrrolo[1,2-c]imidazol-1-yl)-N-(oxetan-3-yl)acetamide] are 47.5 % of control and 11.7 % of control.
For the compound `O=C(Cc1[nH]c(=S)n2c1C[C@@H](c1c(F)ccc(Cl)c1F)C2)N[C@@H]1CCCOC1` [Example 401, 2-((S)-6-(3-chloro-2,6-difluorophenyl)-3-thioxo-2,5,6,7-tetrahydro-3H-pyrrolo[1,2-c]imidazol-1-yl)-N—((R)-tetrahydro-2H-pyran-3-yl)acetamide], the “Plasma (0.01 μM), activity in % of control” value was 66.5 % of control and the “Plasma (0.1 μM), activity in % of control” value is on record as 35.2 % of control.
As to `O=C(Cc1[nH]c(=S)n2c1C[C@H](c1c(F)c(F)cc(F)c1F)C2)NC1CCOCC1` [Example 377, (R)—N-(tetrahydro-2H-pyran-4-yl)-2-(3-thioxo-6-(2,3,5,6-tetrafluorophenyl)-2,5,6,7-tetrahydro-3H-pyrrolo[1,2-c]imidazol-1-yl)acetamide], the “Plasma (0.01 μM), activity in % of control” value was 102.0 % of control and the “Plasma (0.1 μM), activity in % of control” value is given as 56.8 % of control.
Take `N#CCNC(=O)Cc1[nH]c(=S)n2c1C[C@H](c1c(F)ccc(Br)c1F)C2` [Example 159, (R)-2-(6-(3-bromo-2,6-difluorophenyl)-3-thioxo-2,5,6,7-tetrahydro-3H-pyrrolo[1,2-c]imidazol-1-yl)-N-(cyanomethyl)acetamide]: the “Plasma (0.01 μM), activity in % of control” value is 84.3 % of control and the “Plasma (0.1 μM), activity in % of control” value was 50.9 % of control.
The corresponding values for `Cn1c(CCC(N)=O)c2n(c1=S)C[C@H](c1c(F)ccc(Cl)c1F)C2` [Example 262, (S)-3-(6-(3-chloro-2,6-difluorophenyl)-2-methyl-3-thioxo-2,5,6,7-tetrahydro-3H-pyrrolo[1,2-c]imidazol-1-yl)propanamide] are 82.6 % of control and 70.1 % of control.
As for `Cn1c(CC(=O)N2CCOCC2)c2n(c1=S)C[C@@]1(c3cc(Br)ccc3F)C[C@@H]21` [Example 436, 2-((5aS,6aR)-5a-(5-bromo-2-fluorophenyl)-2-methyl-3-thioxo-2,3,5,5a,6,6a-hexahydrocyclopropa[3,4]pyrrolo[1,2-c]imidazol-1-yl)-1-morpholinoethan-1-one], the “Plasma (0.01 μM), activity in % of control” value is reported as 73.6 % of control and the “Plasma (0.1 μM), activity in % of control” value was 23.9 % of control.
For the compound `Cn1c(CC(=O)N2CCS(=O)(=O)CC2)c2n(c1=S)C[C@H](c1c(F)ccc(Br)c1F)C2` [Example 235, (S)-2-(6-(3-bromo-2,6-difluorophenyl)-2-methyl-3-thioxo-2,5,6,7-tetrahydro-3H-pyrrolo[1,2-c]imidazol-1-yl)-1-(1,1-dioxidothiomorpholino)ethan-1-one], the “Plasma (0.01 μM), activity in % of control” value was 11.4 % of control and the “Plasma (0.1 μM), activity in % of control” value is recorded as 1.2 % of control.
Take `O=C(Cc1[nH]c(=S)n2c1C[C@@H](c1c(F)c(F)cc(F)c1F)C2)NC1CCC1` [Example 99, (S)—N-cyclobutyl-2-(6-(2,3,5,6-tetrafluorophenyl)-3-thioxo-2,5,6,7-tetrahydro-3H-pyrrolo[1,2-c]imidazol-1-yl)acetamide]: the “Plasma (0.1 μM), activity in % of control” value is given as 55.7 % of control and the “Plasma (1 μM), activity in % of control” value is 10.3 % of control.
On to `O=C(Cc1[nH]c(=S)n2c1C[C@@H](c1cc(Br)ccc1F)C2)NC1CCCC1` [Example 74, (S)-2-(6-(5-bromo-2-fluorophenyl)-3-thioxo-2,5,6,7-tetrahydro-3H-pyrrolo[1,2-c]imidazol-1-yl)-N-cyclopentylacetamide], for which the “Plasma (0.1 μM), activity in % of control” value is on record as 70.3 % of control and the “Plasma (1 μM), activity in % of control” value is 8.1 % of control.
Take `O=C(Cc1[nH]c(=S)n2c1C[C@H](c1c(F)c(F)cc(F)c1F)C2)NCC1CC1` [Example 79, (R)—N-(cyclopropylmethyl)-2-(6-(2,3,5,6-tetrafluorophenyl)-3-thioxo-2,5,6,7-tetrahydro-3H-pyrrolo[1,2-c]imidazol-1-yl)acetamide]: the “Plasma (0.1 μM), activity in % of control” value was 54.3 % of control and the “Plasma (1 μM), activity in % of control” value was 10.3 % of control.
With `O=C(Cc1[nH]c(=S)n2c1C[C@H](c1c(F)ccc(Br)c1F)C2)NC1CCS(=O)(=O)CC1` [Example 130, (R)-2-(6-(3-bromo-2,6-difluorophenyl)-3-thioxo-2,5,6,7-tetrahydro-3H-pyrrolo[1,2-c]imidazol-1-yl)-N-(1,1-dioxidotetrahydro-2H-thiopyran-4-yl)acetamide], the “Plasma (0.01 μM), activity in % of control” value is 55.7 % of control and the “Plasma (0.1 μM), activity in % of control” value is given as 8.4 % of control.
With `Cn1c(CC(=O)NC2CCOCC2)c2n(c1=S)C[C@@H](c1c(F)c(F)cc(F)c1F)C2` [Example 297, (R)-2-(2-methyl-6-(2,3,5,6-tetrafluorophenyl)-3-thioxo-2,5,6,7-tetrahydro-3H-pyrrolo[1,2-c]imidazol-1-yl)-N-(tetrahydro-2H-pyran-4-yl)acetamide], the “Plasma (0.01 μM), activity in % of control” value was 78.7 % of control and the “Plasma (0.1 μM), activity in % of control” value was 35.4 % of control.

(Values after US11434242B2, “Dopamine-b-hydroxylase inhibitors” (BIAL-PORTELA & Cª, S.A., priority 2017, dated 2022).)
